Measurements published in patent US20130324522A1, “INSECT ODORANT RECEPTOR ANTAGONISTS” (THE ROCKEFELLER UNIVERSITY, priority 2010, published 2013).
Like-named read-outs stand apart in the source and are kept apart here.

Tests used:
Type in all cases: cell-based
TRP channel (TRPM8) = target: T1, TRP channel (TRPM8) (Mus musculus, UniProt Q8R4D5); experiment: Ca2+-imaging of stable HEK293T cell line TRPM8; settings: for inhibition at 4 µM: HEK-293T, read-out: Percent Inhibition TRPM8
T1 construct: Full-length cDNAs for mosquito (Anopheles gambiae) odorant receptor (OR1, OR2, OR7, OR8, OR28), and fly (Drosophila melanogaster) odorant receptor (Or47a, Or83b), mouse TRP channel (TRPM8); expressed in transfected cells
Description: (§1) Full-length cDNAs for mosquito (Anopheles gambiae) odorant receptor (OR1, OR2, OR7, OR8, OR28), and fly (Drosophila melanogaster) odorant receptor (Or47a, Or83b), mouse TRP channel (TRPM8), and mouse serotonin receptor (5HT3) were obtained and subcloned into mammalian expression vectors. The following mammalian expression vectors were used:
(§2) Stable cell lines OR1/OR7, OR2/OR7, OR8/OR7, OR10/OR7, OR28/OR7 and TRPM8 were generated from HEK293T cells. HEK293T-based cell lines were cultured in DMEM supplemented with these additional antibiotics: 6 μg/mL blasticidin and 1 μg/mL puromycin, with the exception of the TRPM8 cell lines, which was cultured in DMEM supplemented with 1 μg/mL puromycin.
(§3) Cells were trypsinized and split into 35 mm dishes one day before transfection. Confluent cells (60-70%) in 35 mm dishes were transfected with 1 μg of insect OR(X) plasmids in pME18s-bla and 1 μg of OR7-pME18s-puro using lipofectamine 2000. For Anopheles odorant receptors, two plasmids were co-transfected into HEK cells: the ligand-specific receptor (OR1, OR2, OR8, OR28) and the corresponding olfactory co-receptor: OR7. Cell lines containing TRPM8 were transfected with single plasmid.
(§4) Stable cell lines were cultured in 10 cm dishes, and confluent cells (70-80%) were trypsinized. 10,000 cells/20 μL were transferred into each well of 384-well plates coated with poly-D-lysine, and cultured for 2 days. For Flip-In T-Rex cells (cell lines expressing Or47a/Or83b and 5HT3), 5 μL of tetracycline (5 μg/mL) were added 1 day before the assay. 20 μL of Ca-4 dye was loaded into each well for 1.5 hr at room temperature in the dark, and the dye-loaded plates were subjected to Ca^2+-imaging using a Hamamatsu FDSS6000 real time fluorescence plate reader. Odorant solutions (9× final concentration) were prepared by dissolving 1M stock solutions into Hank's Buffered Salt Solution (HBSS), and 30 μL of odor solution was transferred to each well in 384-well plates.
(§5) Compounds ([…] in DMSO) were stored in 384-well plates, and last two columns (32 wells total) contained only DMSO. 200 nL of small compounds were transferred into the odorant plates before the assay using the Perkin-Elmer Janus workstation. The odorant plates were spun down to remove air bubbles, and placed on the FDSS6000 plate loader, and 5 μL of odorant solution was applied to the cell plate on the FDSS6000. Ca^2+ increase was monitored with fluorescence at 525 nm by excitation at 485 nm.

OR28/OR7 = OR28/OR7 (Anopheles gambiae, UniProt A0A1S4GFY3+Q7QCC7); experiment: Ca2+-imaging of stable HEK293T cell line OR28/OR7; settings: for inhibition at 4 µM: HEK-293T, read-out: Percent Inhibition OR28 OR7
Description: as §1, §2, §3, §4, §5

Or47a/Or83b = target: T2, Or47a/Or83b (Drosophila melanogaster, UniProt P81921+Q9VNB5); experiment: Ca2+-imaging of stable Flip-In T-Rex cell line Or47a/Or83b; settings: for inhibition at 4 µM: read-out: Percent Inhibition OR47a OR83b
T2 construct: Full-length cDNAs for mosquito (Anopheles gambiae) odorant receptor (OR1, OR2, OR7, OR8, OR28), and fly (Drosophila melanogaster) odorant receptor (Or47a, Or83b); expressed in transfected cells
T2 sequence (P81921 1-385): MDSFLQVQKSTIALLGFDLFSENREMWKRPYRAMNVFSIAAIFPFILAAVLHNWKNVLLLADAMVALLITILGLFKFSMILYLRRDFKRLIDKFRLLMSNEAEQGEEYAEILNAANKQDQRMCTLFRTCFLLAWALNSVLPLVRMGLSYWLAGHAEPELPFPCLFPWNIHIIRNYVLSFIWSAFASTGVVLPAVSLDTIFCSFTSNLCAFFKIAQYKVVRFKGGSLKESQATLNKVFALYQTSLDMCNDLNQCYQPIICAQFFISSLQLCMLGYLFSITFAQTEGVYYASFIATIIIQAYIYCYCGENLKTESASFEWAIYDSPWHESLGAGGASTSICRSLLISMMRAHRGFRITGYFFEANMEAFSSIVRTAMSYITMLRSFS
T2 sequence (Q9VNB5 1-486): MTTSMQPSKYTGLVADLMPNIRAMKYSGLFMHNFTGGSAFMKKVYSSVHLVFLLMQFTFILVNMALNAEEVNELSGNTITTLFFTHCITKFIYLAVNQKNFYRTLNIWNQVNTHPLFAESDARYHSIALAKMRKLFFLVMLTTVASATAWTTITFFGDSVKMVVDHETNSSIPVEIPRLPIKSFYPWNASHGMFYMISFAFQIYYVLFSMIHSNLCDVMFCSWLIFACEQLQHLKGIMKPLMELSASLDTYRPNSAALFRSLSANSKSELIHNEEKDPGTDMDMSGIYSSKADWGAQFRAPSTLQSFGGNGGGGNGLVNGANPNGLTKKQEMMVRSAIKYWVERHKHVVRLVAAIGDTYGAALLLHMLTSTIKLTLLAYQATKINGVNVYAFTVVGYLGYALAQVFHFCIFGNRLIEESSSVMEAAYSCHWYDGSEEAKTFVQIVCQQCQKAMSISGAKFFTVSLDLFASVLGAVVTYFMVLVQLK
Description: as §1
Stable cell lines Or47a/Or83b and 5HT3 were generated from Flip-In T-Rex cells. Flip-In T-Rex-based cell lines were cultured in DMEM supplemented with these additional antibiotics: 6 μg/mL blasticidin and 100 μg/mL hygromycin.
Cells were trypsinized and split into 35 mm dishes 1 day before transfection. Confluent cells (60-70%) in 35 mm dishes were co-transfected with 1 μg of Or47a/Or83b plasmid in pcDNA5/FRT/TO/IRES plus the pOG44 plasmid or 1 μg of 5HT3 plasmid in pcDNA5/FRT/TO plus the pOG44 plasmid using lipofectamine 2000. Co-transfection of pOG44 and pcDNA5/FRT/TO/IRES or pcDNA5/FRT/TO allows expression of Flp recombinase and integration of the pcDNA5 plasmid into the genome via the FRT site. After one day of incubation, the transfected cells were transferred into 10 cm dishes with DMEM containing antibiotics: 20 μg/mL of hygromycin and 6 μg/mL of blasticidin. The concentration of Hygromycin was increased to 100 μg/mL when the population of cells became 30-40% confluent. The cells were cultured by changing medium every two days until cell clumps appeared. The clumps were picked and transferred into 96 well plates with DMEM containing 100 μg/mL of Hygromycin and 6 μg/mL of blasticidin. The cells were grown and transferred to 24 well plates, and ligand-evoked calcium increases were tested using the Hamamatsu FDSS6000 real time fluorescence plate reader.
as §4, §5

OR8/OR7 = OR8/OR7 (Anopheles gambiae, UniProt Q7PUT5+Q7QCC7); experiment: Ca2+-imaging of stable HEK293T cell line OR8/OR7; settings: for inhibition at 4 µM: HEK-293T, read-out: Percent Inhibition OR8 OR7
Description: as §1, §2, §3, §4, §5

[1] = ligand menthol 300 μM, read-out: IC50 TRPM8
[2] = ligand acetophenone 300 μM, read-out: IC50 OR28 OR7
[3] = ligand pentyl acetate 30 μM, read-out: IC50 OR47a OR83b
[4] = ligand 1-octen-3-ol 30 μM, read-out: IC50 OR8 OR7

T1 sequence (Q8R4D5 whole entry): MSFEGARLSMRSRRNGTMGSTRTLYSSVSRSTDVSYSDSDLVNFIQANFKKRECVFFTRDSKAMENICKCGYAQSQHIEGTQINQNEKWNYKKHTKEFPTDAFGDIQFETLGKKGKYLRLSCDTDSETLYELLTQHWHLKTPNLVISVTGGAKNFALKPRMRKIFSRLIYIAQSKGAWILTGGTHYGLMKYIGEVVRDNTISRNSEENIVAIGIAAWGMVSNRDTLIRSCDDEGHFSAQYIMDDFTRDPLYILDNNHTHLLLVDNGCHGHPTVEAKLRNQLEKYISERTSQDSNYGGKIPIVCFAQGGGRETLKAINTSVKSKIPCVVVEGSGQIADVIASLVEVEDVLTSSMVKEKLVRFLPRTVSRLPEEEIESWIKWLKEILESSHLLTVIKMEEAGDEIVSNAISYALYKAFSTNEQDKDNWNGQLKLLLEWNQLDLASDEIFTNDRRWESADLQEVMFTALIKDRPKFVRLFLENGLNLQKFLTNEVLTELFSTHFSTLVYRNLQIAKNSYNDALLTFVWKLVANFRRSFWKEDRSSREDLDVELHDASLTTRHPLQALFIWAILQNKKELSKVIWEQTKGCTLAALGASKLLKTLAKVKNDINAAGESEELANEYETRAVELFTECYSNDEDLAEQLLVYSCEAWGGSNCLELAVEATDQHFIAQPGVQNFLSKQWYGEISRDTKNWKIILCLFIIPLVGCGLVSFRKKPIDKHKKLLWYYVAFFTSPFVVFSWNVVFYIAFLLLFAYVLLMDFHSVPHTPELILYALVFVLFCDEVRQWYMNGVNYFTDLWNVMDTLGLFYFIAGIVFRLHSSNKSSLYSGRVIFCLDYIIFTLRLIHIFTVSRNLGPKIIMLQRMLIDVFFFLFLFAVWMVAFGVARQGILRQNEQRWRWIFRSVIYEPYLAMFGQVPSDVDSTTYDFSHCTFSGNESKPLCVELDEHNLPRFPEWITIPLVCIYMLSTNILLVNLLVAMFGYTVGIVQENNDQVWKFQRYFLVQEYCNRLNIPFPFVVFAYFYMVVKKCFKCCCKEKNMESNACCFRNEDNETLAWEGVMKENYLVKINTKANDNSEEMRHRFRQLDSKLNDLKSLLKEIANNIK
OR28/OR7, sequence (A0A1S4GFY3 entry or part of it): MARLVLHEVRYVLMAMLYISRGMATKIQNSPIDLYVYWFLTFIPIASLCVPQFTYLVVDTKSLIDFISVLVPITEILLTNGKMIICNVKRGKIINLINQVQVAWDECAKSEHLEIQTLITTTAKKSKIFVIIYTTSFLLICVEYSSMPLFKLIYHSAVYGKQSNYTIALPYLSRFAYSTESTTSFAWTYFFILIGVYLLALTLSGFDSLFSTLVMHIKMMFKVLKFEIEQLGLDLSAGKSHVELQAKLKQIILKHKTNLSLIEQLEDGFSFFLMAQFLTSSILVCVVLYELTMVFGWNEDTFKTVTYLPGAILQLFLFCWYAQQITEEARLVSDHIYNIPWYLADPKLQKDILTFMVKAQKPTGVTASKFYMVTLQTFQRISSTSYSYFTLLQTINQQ
OR28/OR7, sequence (Q7QCC7 whole entry): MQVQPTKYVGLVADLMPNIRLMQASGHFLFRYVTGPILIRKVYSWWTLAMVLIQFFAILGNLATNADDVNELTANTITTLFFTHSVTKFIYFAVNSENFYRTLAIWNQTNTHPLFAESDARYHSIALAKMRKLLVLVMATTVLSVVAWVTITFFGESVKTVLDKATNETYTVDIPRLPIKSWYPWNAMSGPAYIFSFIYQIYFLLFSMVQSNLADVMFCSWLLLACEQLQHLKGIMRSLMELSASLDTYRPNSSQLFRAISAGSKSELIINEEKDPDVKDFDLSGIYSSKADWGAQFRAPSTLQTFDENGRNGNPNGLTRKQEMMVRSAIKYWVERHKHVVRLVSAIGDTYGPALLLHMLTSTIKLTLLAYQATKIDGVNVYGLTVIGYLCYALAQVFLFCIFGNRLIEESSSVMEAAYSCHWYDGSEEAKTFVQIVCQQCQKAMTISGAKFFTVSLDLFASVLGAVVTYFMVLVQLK
OR8/OR7, sequence (Q7QCC7 whole entry): as above
OR8/OR7, sequence (Q7PUT5 entry or part of it): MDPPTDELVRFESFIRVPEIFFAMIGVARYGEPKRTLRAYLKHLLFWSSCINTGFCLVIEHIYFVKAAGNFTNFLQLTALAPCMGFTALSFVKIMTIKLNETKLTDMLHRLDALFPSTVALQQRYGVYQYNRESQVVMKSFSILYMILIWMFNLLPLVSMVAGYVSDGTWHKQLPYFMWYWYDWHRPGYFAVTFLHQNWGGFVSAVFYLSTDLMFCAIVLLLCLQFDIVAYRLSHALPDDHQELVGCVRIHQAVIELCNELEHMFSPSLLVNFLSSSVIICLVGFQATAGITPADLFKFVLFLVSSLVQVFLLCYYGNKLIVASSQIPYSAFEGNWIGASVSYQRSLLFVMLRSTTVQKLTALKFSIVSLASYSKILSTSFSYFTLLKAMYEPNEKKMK

Row | Structure (SMILES) | inhibition at 4 µM (TRP channel (TRPM8); compound applied at 4 μM) [%] | inhibition at 4 µM (OR28/OR7; compound applied at 4 μM) [%] | IC50 (OR28/OR7; Table B, read-out: IC50 OR28) [µM] | IC50 (Or47a/Or83b; Table B, read-out: IC50 OR47a) [µM] | inhibition at 4 µM (Or47a/Or83b; compound applied at 4 μM) [%] | inhibition at 4 µM (OR8/OR7; compound applied at 4 μM) [%] | also measured
1 | C=CCN(Cc1nccn1Cc1ccccc1C)C(=O)CC(C)C [RU-0058298] | 26 to 50 | > 75 | < 0.1 | > 1 | 51 to 74 | < 25 | –
2 | CCN(CC)C(=O)Oc1ccc2c(ccn2Cc2cccc(C)c2)c1NC(=O)CCCCC(=O)OC [RU-0075445] | – | – | – | – | – | – | inhibition at 4 µM (TRP channel (TRPM8)): < 25%; IC50 (OR28/OR7): < 0.1 µM; inhibition at 4 µM (OR28/OR7): > 75%; inhibition at 4 µM (Or47a/Or83b): < 25%; inhibition at 4 µM (OR8/OR7): < 25%
3 | Cc1cccc(NC(=O)CCC2CCN(C(=O)CCOc3ccccc3)CC2)c1 [RU-0030324] | 26 to 50 | > 75 | < 0.1 | < 0.1 | 51 to 74 | 26 to 50 | –
4 | Cc1c(C(=O)NCc2ccco2)cnn1-c1ccccc1 [RU-0047765] | 26 to 50 | > 75 | < 0.1 | > 1 | 26 to 50 | < 25 | –
5 | O=C(c1ccco1)N(Cc1nccn1Cc1c(F)cccc1Cl)C1CC1 [RU-0048046] | < 25 | > 75 | < 0.1 | – | 26 to 50 | < 25 | –
6 | O=C(c1nccn1Cc1c(F)cccc1Cl)N(CC1CCCC1)C1CC1 [RU-I3] | – | – | – | – | – | – | IC50 (TRP channel (TRPM8); [1]): > 20 µM; IC50 (OR28/OR7; [2]): < 2 µM; IC50 (Or47a/Or83b; [3]): < 2 µM; IC50 (OR8/OR7; [4]): < 2 µM
7 | COc1cccc(NC(=O)CCC2CCN(C(=O)CSc3ccccc3)CC2)c1 [RU-0032474] | < 25 | 51 to 74 | < 0.1 | > 1 | 51 to 74 | < 25 | –
8 | O=C(C1CCC1)N(Cc1ccco1)Cc1nccn1Cc1ccccc1Cl [RU-0048066] | < 25 | > 75 | < 0.1 | – | 26 to 50 | < 25 | –
9 | CC(C)Nc1nc(Cl)nc(NC(C)C)n1 [RU-T1] | – | – | – | – | – | – | IC50 (TRP channel (TRPM8); [1]): > 20 µM; IC50 (OR28/OR7): > 220 µM; IC50 (Or47a/Or83b; [3]): > 20 µM; IC50 (OR8/OR7): > 220 µM
10 | C=CCN(Cc1nccn1Cc1ccccc1F)C(=O)C1CCCC1 [RU-0058964] | 26 to 50 | > 75 | < 0.1 | > 1 | 51 to 74 | 26 to 50 | –
11 | CC(C)N(Cc1nccn1Cc1c(F)cccc1Cl)C(=O)c1ccc(Cl)cc1 [RU-0055364] | < 25 | > 75 | < 0.1 | – | 26 to 50 | 26 to 50 | –
12 | CCNc1nc(NCC)nc(SC)n1 [RU-T4] | – | – | – | – | – | – | IC50 (TRP channel (TRPM8); [1]): > 20 µM; IC50 (OR28/OR7): > 20 µM; IC50 (Or47a/Or83b; [3]): > 20 µM; IC50 (OR8/OR7): 2 to 20 µM
13 | COc1ccccc1CCC(=O)N1CCC(CCC(=O)Nc2ccccc2)CC1 [RU-0032455] | < 25 | > 75 | < 0.1 | > 1 | 51 to 74 | 26 to 50 | –
14 | COCCNC(=O)c1ccc(CSc2nnc(-c3ccc(C)cc3)n2-c2ccccc2C)cc1 [RU-0053556] | 26 to 50 | > 75 | 0.1 to 1 | – | 26 to 50 | 26 to 50 | –
15 | CN(Cc1nccn1Cc1c(F)cccc1Cl)C(=O)C1CCCC1 [RU-I5] | – | – | – | – | – | – | IC50 (TRP channel (TRPM8); [1]): > 20 µM; IC50 (OR28/OR7; [2]): 2 to 20 µM; IC50 (Or47a/Or83b; [3]): 20 to 50 µM; IC50 (OR8/OR7; [4]): 2 to 20 µM
16 | Cc1ccccc1C(=O)N[C@@H]1CCCCC1NC(=O)C1CCN(C(=O)c2cc(C(F)(F)F)cc(C(F)(F)F)c2)CC1 (stereo partly drawn) [RU-0045778] | < 25 | 51 to 74 | < 0.1 | – | 26 to 50 | < 25 | –
17 | CCNc1nc(Cl)nc(NC(C)C)n1 [RU-T5] | – | – | – | – | – | – | IC50 (TRP channel (TRPM8); [1]): > 20 µM; IC50 (OR28/OR7): > 20 µM; IC50 (Or47a/Or83b; [3]): > 20 µM; IC50 (OR8/OR7): < 2 µM
18 | CC(C)Nc1nc(NC(C)C)nc(C(F)(F)F)n1 [RU-T8] | – | – | – | – | – | – | IC50 (TRP channel (TRPM8)): > 20 µM; IC50 (OR28/OR7): > 20 µM; IC50 (Or47a/Or83b): > 20 µM; IC50 (OR8/OR7): 2 to 20 µM
